The results in this text go back to article PMC9947105, “Structural remodelling of the carbon–phosphorus lyase machinery by a dual ABC ATPase” (Nature Communications, 2023).

In data set [1] the target is T1, Phn(GHIJKL)2 (ATPase assay) (Escherichia coli, UniProt P16678+P16679, P16678:E171Q).
T1 construct: gene phnK
The following applies: 1 or 5 mM ATP, Mg2+, pH 7.5, 37 °C (coupled assay); hydrolysis by PhnK and PhnL.

Data set [2] addresses T2, Phn(GHIJKL)2 (ATPase assay) (Escherichia coli, UniProt P16678+P16679).
T2 construct: gene phnK
As to conditions: 1 or 5 mM ATP, Mg2+, pH 7.5, 37 °C (coupled assay); hydrolysis by PhnK and PhnL.

Data set [3] has as its target Phn(GHIJKL)2, PhnL nucleotide-binding site (Escherichia coli, UniProt P16679). The following applies: ATP turnover (1.5 mM ATP, 6 mM MgCl2, 37 °C, 15 s); both PhnL sites, dimer open; PhnK holds ADP + Pi.
For data set [4], the target named is T3, Phn(GHIJKL)2, PhnK nucleotide-binding site (Escherichia coli, UniProt P16678, E171Q).
T3 construct: hetero-dodecamer, 327 kDa, expressed in E. coli Lemo21 from pRBS01 (phn genes from pBW120); C-terminal TEV-2xStrep-tag on PhnK, TEV-treated for wild-type cryo-EM sample; with Alpha-D-ribose 1-methylphosphonate 5-triphosphate synthase subunit PhnL; Alpha-D-ribose 1-methylphosphonate 5-phosphate C-P lyase; Alpha-D-ribose 1-methylphosphonate 5-triphosphate synthase subunit PhnI; Alpha-D-ribose 1-methylphosphonate 5-triphosphate synthase subunit PhnH
Description: cryo-EM structure, […] Å. As to conditions: 5 mM AMPPNP, 5 mM MgCl2, pH 7.5; both PhnK sites, closed dimer; PhnL empty.

The target of data set [5] is T4, Phn(GHIJK)2 closed, Zn2+ site at the PhnI-PhnJ interface (His site) (Escherichia coli, UniProt P16687+P16688).
T4 construct: class without PhnL density from the purified wild-type Phn(GHIJKL)2 sample (pRBS01, TEV-treated PhnK Strep-tag); with Alpha-D-ribose 1-methylphosphonate 5-triphosphate synthase subunit PhnH
Description: cryo-EM structure, […] Å. As to conditions: co-purified ligand modelled from density, identity not confirmed by mass spectrometry, absent in open state. It counts as binding.

In data set [6] the target is T5, Phn(GHIJKL)2, PhnK nucleotide-binding site (Escherichia coli, UniProt P16678).
T5 construct: hetero-dodecamer, 327 kDa, expressed in E. coli Lemo21 from pRBS01 (phn genes from pBW120); C-terminal TEV-2xStrep-tag on PhnK, TEV-treated for wild-type cryo-EM sample; with Alpha-D-ribose 1-methylphosphonate 5-triphosphate synthase subunit PhnL; Alpha-D-ribose 1-methylphosphonate 5-phosphate C-P lyase; Alpha-D-ribose 1-methylphosphonate 5-triphosphate synthase subunit PhnI; Alpha-D-ribose 1-methylphosphonate 5-triphosphate synthase subunit PhnH
Put plainly: cryo-EM structure, […] Å. As to conditions: ATP turnover (1.5 mM ATP, 6 mM MgCl2, 37 °C, 15 s); post-hydrolysis state, ADP + Pi in PhnK site.

Data set [7] concerns the molecule itself. Description: cryo-EM structure; wild type Phn(GHIJKL)2 purified as a complex with ATP and EDTA, then 1.5 mM ATP and 6 mM MgCl2, 15 s at 37 °C (ATP turnover); 3D classes: Phn(GHIJKL)2 with ADP + Pi, Phn(GHIJK)2 closed, Phn(GHIJK)2 open.
Data set [8] concerns the molecule itself. Description: cryo-EM structure; Phn(GHIJKL)2-PhnK E171Q co-expressed from the phnGHIJKLMNOP plasmid and purified as a complex on StrepTrap with AMPPNP; 2.5 mg/mL; 25 mM HEPES/KOH pH 7.5, 125 mM KCl, 5 mM MgCl2, 5 mM BME.

For the molecule `Nc1ncnc2c1ncn2[C@@H]1O[C@H](COP(=O)(O)OP(=O)(O)OP(=O)(O)O)[C@@H](O)[C@H]1O` [ATP], the entries for the “ion exchange of nucleotides; coupled pyruvate kinase / lactate dehydrogenase ATP” value in data set [1] and in data set [2] were “we observed a significantly reduced ATPase activity” and “clear ATPase activity for the wildtype PhnGHIJKL complex”, respectively. For the same molecule, the “cryo-EM structure, 1.9 Å” value in data set [3] is given as “binding of ATP to both nucleotide binding sites in PhnL”.
As for `Nc1ncnc2c1ncn2[C@@H]1O[C@H](COP(=O)(O)OP(=O)(O)NP(=O)(O)O)[C@@H](O)[C@H]1O` [AMPPNP], in data set [4], the “cryo-EM structure, 2.1 Å” value is “clear density for AMPPNP allowed for modelling of a nucleotide in both active site pockets”.
Regarding `O=P(O)(O)OC[C@H]1O[C@@H]2OP(=O)(O)O[C@@H]2[C@@H]1O` [5-phospho-α-D-ribose-1,2-cyclic-phosphate], the “cryo-EM structure, 2.0 Å” value in data set [5] is reported as “we were able to model the ligand as 5-phospho-α-D-ribose-1,2-cyclic-phosphate”.
On to `Nc1ncnc2c1ncn2[C@@H]1O[C@H](COP(=O)(O)OP(=O)(O)O)[C@@H](O)[C@H]1O` [ADP], for which, in data set [6], the “cryo-EM structure, 1.9 Å” value was “contains ADP and Pi and consequently represents a true ATP post-hydrolysis state”.

B1: PhnI (natural protein, Escherichia coli)
chain: MYVAVKGGEKAIDAAHALQESRRRGDTDLPELSVAQIEQQLNLAVDRVMTEGGIADRELAALALKQASGDNVEAIFLLRAYRTTLAKLAVSEPLDTTGMRLERRISAVYKDIPGGQLLGPTYDYTHRLLDFTLLANGEAPTLTTADSEQQPSPHVFSLLARQGLAKFEEDSGAQPDDITRTPPVYPCSRSSRLQQLMRGDEGYLLALAYSTQRGYGRNHPFAGEIRSGYIDVSIVPEELGFAVNVGELLMTECEMVNGFIDPPGEPPHFTRGYGLVFGMSERKAMAMALVDRALQAPEYGEHATGPAQDEEFVLAHADNVEAAGFVSHLKLPHYVDFQAELELLKRLQQEQNHG
notes: PhnI, subunit of carbon-phosphorus lyase, Escherichia coli phn operon; untagged, encoded on the expression plasmid; Whole phn genes amplified from pBW120; also called PhnI subunit of the C–P lyase core complex
For B1, the binding result in data set [7] is on record as “binds”.

B2: PhnL (natural protein, Escherichia coli)
chain: MINVQNVSKTFILHQQNGVRLPVLNRASLTVNAGECVVLHGHSGSGKSTLLRSLYANYLPDEGQIQIKHGDEWVDLVTAPARKVVEIRKTTVGWVSQFLRVIPRISALEVVMQPLLDTGVPREACAAKAARLLTRLNVPERLWHLAPSTFSGGEQQRVNIARGFIVDYPILLLDEPTASLDAKNSAAVVELIREAKTRGAAIVGIFHDEAVRNDVADRLHPMGASS
notes: PhnL, non-transporter ABC protein of the Escherichia coli phn operon; untagged; β hairpin extension residues 7-14; Identified in the complex by mass spectrometry and by the EM density; also called PhnL subunit; ABC module PhnL; source: E. coli Lemo21 (pRBS01 or pRBS01-PhnK E171Q), co-expressed, purified as part of the complex through Strep-tagged PhnK
Take B2: the binding result in data set [7] is “binds”.

B3: PhnK E171Q with a C-terminal TEV-2xStrep-tag (natural protein, Escherichia coli)
chain: MNQPLLSVNNLTHLYAPGKGFSDVSFDLWPGEVLGIVGESGSGKTTLLKSISARLTPQQGEIHYENRSLYAMSEADRRRLLRTEWGVVHQHPLDGLRRQVSAGGNIGERLMATGARHYGDIRATAQKWLEEVEIPANRIDDLPTTFSGGMQQRLQIARNLVTHPKLVFMDQPTGGLDVSVQARLLDLLRGLVVELNLAVVIVTHDLGVARLLADRLLVMKQGQVVESGLTDRVLDDPHHPYTQLLVSSVLQN
notes: PhnK, non-transporter ABC protein of the Escherichia coli phn operon, with the Walker B mutation E171Q; also called Phn(GHIJKL)2-PhnK E171Q; not shown: 2xStrep-tag (after a TEV site), C-terminal, kept
As for B3, in data set [8], the binding result is listed as “binds”.

B4: PhnK wild type, TEV-2xStrep-tag removed with TEV protease (natural protein, Escherichia coli)
chain: MNQPLLSVNNLTHLYAPGKGFSDVSFDLWPGEVLGIVGESGSGKTTLLKSISARLTPQQGEIHYENRSLYAMSEADRRRLLRTEWGVVHQHPLDGLRRQVSAGGNIGERLMATGARHYGDIRATAQKWLEEVEIPANRIDDLPTTFSGGMQQRLQIARNLVTHPKLVFMDEPTGGLDVSVQARLLDLLRGLVVELNLAVVIVTHDLGVARLLADRLLVMKQGQVVESGLTDRVLDDPHHPYTQLLVSSVLQN
notes: PhnK, non-transporter ABC protein of the Escherichia coli phn operon; Residues of the TEV site probably stay at the C-terminus after cleavage; also called wild type PhnK; not shown: 2xStrep-tag (after a TEV site), C-terminal, cleaved
For the molecule B4, the binding result in data set [7] is listed as “binds”.
